# Assays:
# Pseudomonas aeruginosa = test: MIC/MBC against mixed-species biofilms: P. aeruginosa; format: cell-based; settings: mixed-species biofilms grown 22 hours, 20 hours of treatment
# Procedure: (§1) Several CSA compounds were tested against Pseudomonas aeruginosa and Staphylococcus aureus mixed-species biofilms grown for an initial 22 hours and subjected to 20 hours of treatment.
# Staphylococcus aureus = test: MIC/MBC against mixed-species biofilms: S. aureus; format: cell-based; settings: mixed-species biofilms grown 22 hours, 20 hours of treatment
# Procedure: as §1
# primary human MSC cells = test: Gene expression (q-PCR, inflammation-related mRNA panel) after CSA treatment of primary cells; format: cell-based; settings: 8 hours treatment, CSA-13 at 5.0 μM; for Fold Regulation, IL1A: gene IL1A (Interleukin-1 alpha); for Fold Regulation, IL1A / Fold Regulation, IL1B / Fold Regulation, IRAK2 / Fold Regulation, NFKBIA / Fold Regulation, TLR2 / Fold Regulation, TLR4 / Fold Regulation, TLR6 / Fold Regulation, TLR8 / Fold Regulation, TLR9 / Fold Regulation, TNF / Fold Regulation, TNFRSF1A: q-PCR; for Fold Regulation, IL1B: gene IL1B (Interleukin-1 beta); for Fold Regulation, IRAK2: gene IRAK2 (Interleukin-1 receptor-associated kinase 2); for Fold Regulation, NFKB1: gene NFKB1, q-PCR; for Fold Regulation, NFKB2: gene NFKB2, q-PCR; for Fold Regulation, NFKBIA: gene NFKBIA; for Fold Regulation, TLR2: gene TLR2 (Toll-like receptor 2); for Fold Regulation, TLR4: gene TLR4 (Toll-like receptor 4); for Fold Regulation, TLR6: gene TLR6 (Toll-like receptor 6); for Fold Regulation, TLR8: gene TLR8 (Toll-like receptor 8); for Fold Regulation, TLR9: gene TLR9 (Toll-like receptor 9); for Fold Regulation, TNF: gene TNF (Tumor necrosis factor); for Fold Regulation, TNFRSF1A: gene TNFRSF1A
# Enterobacteriaceae (22) = test: Broth microdilution susceptibility testing, Enterobacteriaceae isolates; format: cell-based; settings: unit inferred, unit assumed
# Procedure: (§2) CSA-131 was tested in vitro against a set of clinical isolates representing bacterial species commonly associated with hospital-acquired infections. Antimicrobial susceptibility testing for 74 clinical isolates was performed.
# Non-fermenters (22) = test: Broth microdilution susceptibility testing, non-fermenter isolates; format: cell-based, A. baumannii species complex, P. aeruginosa, S. maltophilia; settings: unit inferred, unit assumed
# Procedure: as §2
# [1] = tested on: Staphylococcus aureus (10); test: Broth microdilution susceptibility testing, S. aureus isolates; format: cell-based; settings: unit inferred, unit assumed
# Procedure: as §2
# Haemophilus spp. (10) = test: Broth microdilution susceptibility testing, Haemophilus spp. isolates; format: cell-based, H. influenza and H. parainfluenzae; settings: unit inferred, unit assumed
# Procedure: as §2
# [2] = tested on: 74 clinical isolates (All); test: Broth microdilution susceptibility testing, all clinical isolates; format: cell-based; settings: All (74) isolates; no unit in column head (MIC levels of table in μg/ml)
# Procedure: as §2
# [3] = tested on: Streptococcus Pneumoniae (10); test: Broth microdilution susceptibility testing, S. pneumoniae isolates; format: cell-based; settings: unit inferred, unit assumed
# Procedure: as §2
# [4] = Solubility of CSA-131 salt in cyanoacrylate; format: physicochemical
# Procedure: CSA-131 (bis-DNS salt) was used in this Example. This material is a stable, colorless solid and is insoluble in cyanoacrylate. To ensure uniform distribution of CSA-131 in the cyanoacrylate polymer, the solid was micronized using a jet mill to give an average particle size of 200 nm. The resulting powder was added to cyanoacrylate to give a 5% (w/w) mixture, which was vigorously agitated. No immediate change in viscosity was observed, and the mixture remained non-viscous for more than 15 min.
# IL-6 = test: Kidney IL-6 levels in P. aeruginosa pneumonia model; format: in vivo, C57/BL6 mice; settings: 24 hours post-infection
# Source text: IL-6 is a marker of systemic inflammation. Female C57/BL6 mice were infected in the respiratory tract with a non-lethal dose of P. aeruginosa as a model of pneumonia.
smiles,measurement,setting,value
CCCCCN(CCCCC)CCCC(C)C1CCC2C3C(OCCCN)CC4CC(OCCCN)CCC4(C)C3CC(OCCCN)C12C.Cl.Cl.Cl.Cl (centres unmarked) [CSA-90],MBC P. aeruginosa,Pseudomonas aeruginosa,6.25 µg/mL
same,MIC P. aeruginosa,Pseudomonas aeruginosa,6.25 µg/mL
same,MBC S. aureus,Staphylococcus aureus,1.56 µg/mL
same,MIC S. aureus,Staphylococcus aureus,1.56 µg/mL
same,"Fold Regulation, IL1A",primary human MSC cells,−6.96 fold
same,"Fold Regulation, IL1B",primary human MSC cells,−3.6734 fold
same,"Fold Regulation, IRAK2",primary human MSC cells,−52.0069 fold
same,"Fold Regulation, NFKB1",primary human MSC cells,−4.718 fold
same,"Fold Regulation, NFKB2",primary human MSC cells,−2.5474 fold
same,"Fold Regulation, NFKBIA",primary human MSC cells,−26.0352 fold
same,"Fold Regulation, TLR2",primary human MSC cells,−13.6933 fold
same,"Fold Regulation, TLR4",primary human MSC cells,−3.4278 fold
same,"Fold Regulation, TLR6",primary human MSC cells,−2.0885 fold
same,"Fold Regulation, TLR8",primary human MSC cells,−4.1972 fold
same,"Fold Regulation, TLR9",primary human MSC cells,−1.8613 fold
same,"Fold Regulation, TNF",primary human MSC cells,−4.8514 fold
same,"Fold Regulation, TNFRSF1A",primary human MSC cells,−7.3196 fold
CCCCCCCCCCOC(=O)CC[C@@H](C)[C@H]1CC[C@H]2[C@@H]3[C@H](OC(=O)CCN)C[C@@H]4C[C@H](OC(=O)CCN)CC[C@]4(C)[C@H]3C[C@H](OC(=O)CCN)[C@]12C [CSA-144],MBC P. aeruginosa,Pseudomonas aeruginosa,50 µg/mL
same,MIC P. aeruginosa,Pseudomonas aeruginosa,12.5 µg/mL
same,MBC S. aureus,Staphylococcus aureus,3.125 µg/mL
same,MIC S. aureus,Staphylococcus aureus,3.125 µg/mL
CCCCCCCCOC(=O)CC[C@@H](C)[C@H]1CC[C@H]2[C@@H]3[C@H](OC(=O)CCN)C[C@@H]4C[C@H](OC(=O)CCN)CC[C@]4(C)[C@H]3C[C@H](OC(=O)CCN)[C@]12C [CSA-44],"Fold Regulation, IL1A",primary human MSC cells,−6.0325 fold
same,"Fold Regulation, IL1B",primary human MSC cells,−28.5329 fold
same,"Fold Regulation, IRAK2",primary human MSC cells,−31.8021 fold
same,"Fold Regulation, NFKB1",primary human MSC cells,−3.2891 fold
same,"Fold Regulation, NFKB2",primary human MSC cells,−2.2766 fold
same,"Fold Regulation, NFKBIA",primary human MSC cells,−52.206 fold
same,"Fold Regulation, TLR2",primary human MSC cells,−15.7179 fold
same,"Fold Regulation, TLR4",primary human MSC cells,−2.977 fold
same,"Fold Regulation, TLR6",primary human MSC cells,−2.392 fold
same,"Fold Regulation, TLR8",primary human MSC cells,−8.2256 fold
same,"Fold Regulation, TLR9",primary human MSC cells,−1.8905 fold
same,"Fold Regulation, TNF",primary human MSC cells,−25.9588 fold
same,"Fold Regulation, TNFRSF1A",primary human MSC cells,−2.2461 fold
CCCCCCCCCCCCNCCC[C@@H](C)[C@H]1CC[C@H]2[C@@H]3[C@H](OCCCN)C[C@@H]4C[C@H](OCCCN)CC[C@]4(C)[C@H]3C[C@H](OCCCN)[C@]12C.Cl.Cl.Cl.Cl [CSA-131],MIC50,Enterobacteriaceae (22),4 µg/mL
same,MIC90,Enterobacteriaceae (22),4 µg/mL
same,MIC50,Non-fermenters (22),4 µg/mL
same,MIC90,Non-fermenters (22),4 µg/mL
same,MIC50,[1],2 µg/mL
same,MIC90,[1],2 µg/mL
same,MIC50,Haemophilus spp. (10),8 µg/mL
same,MIC90,Haemophilus spp. (10),8 µg/mL
same,MIC50,[2],4
same,MIC90,[2],8
same,MIC50,[3],4 µg/mL
same,MIC90,[3],4 µg/mL
CC(O)C1CCC2C3C(OCCCN)CC4CC(OCCCN)CCC4(C)C3CC(OCCCN)C12C.Cl.Cl.Cl (centres unmarked) [CSA-11],MBC P. aeruginosa,Pseudomonas aeruginosa,>200 µg/mL
same,MIC P. aeruginosa,Pseudomonas aeruginosa,>200 µg/mL
same,MBC S. aureus,Staphylococcus aureus,50 µg/mL
same,MIC S. aureus,Staphylococcus aureus,50 µg/mL
CCCCCCCCCCCCNCCCC(C)C1CCC2C3C(OCCCN)CC4CC(OCCCN)CCC4(C)C3CC(OCCCN)C12C.O=S(=O)(O)c1cccc2c(S(=O)(=O)O)cccc12.O=S(=O)(O)c1cccc2c(S(=O)(=O)O)cccc12 (centres unmarked) [CSA-131 (bis-DNS salt)],Solubility in cyanoacrylate,[4],insoluble
CCCCCCCCCOC(=O)CC[C@@H](C)[C@H]1CC[C@H]2[C@@H]3[C@H](OC(=O)CCN)C[C@@H]4C[C@H](OC(=O)CCN)CC[C@]4(C)[C@H]3C[C@H](OC(=O)CCN)[C@]12C [CSA-145],MBC P. aeruginosa,Pseudomonas aeruginosa,50 µg/mL
same,MIC P. aeruginosa,Pseudomonas aeruginosa,12.5 µg/mL
same,MBC S. aureus,Staphylococcus aureus,3.125 µg/mL
same,MIC S. aureus,Staphylococcus aureus,3.125 µg/mL
CC(CCCNCCCNCCCN)C1CCC2C3C(OCCCN)CC4CC(OCCCN)CCC4(C)C3CC(OCCCN)C12C.Cl.Cl.Cl.Cl.Cl.Cl (centres unmarked) [CSA-54],MBC P. aeruginosa,Pseudomonas aeruginosa,100 µg/mL
same,MIC P. aeruginosa,Pseudomonas aeruginosa,50 µg/mL
same,MBC S. aureus,Staphylococcus aureus,25 µg/mL
same,MIC S. aureus,Staphylococcus aureus,6.25 µg/mL
CCCCCCCCCCCCCNCCC[C@@H](C)[C@H]1CC[C@H]2[C@@H]3[C@H](OCCCN)C[C@@H]4C[C@H](OCCCN)CC[C@]4(C)[C@H]3C[C@H](OCCCN)[C@]12C [CSA-138],MBC P. aeruginosa,Pseudomonas aeruginosa,6.25 µg/mL
same,MIC P. aeruginosa,Pseudomonas aeruginosa,3.125 µg/mL
same,MBC S. aureus,Staphylococcus aureus,3.125 µg/mL
same,MIC S. aureus,Staphylococcus aureus,1.56 µg/mL
CC(CCCO)C1CCC2C3C(OCCCN)CC4CC(OCCCN)CCC4(C)C3CC(OCCCN)C12C.Cl.Cl.Cl (centres unmarked) [CSA-8],MBC P. aeruginosa,Pseudomonas aeruginosa,100 µg/mL
same,MIC P. aeruginosa,Pseudomonas aeruginosa,25 µg/mL
same,MBC S. aureus,Staphylococcus aureus,6.25 µg/mL
same,MIC S. aureus,Staphylococcus aureus,3.125 µg/mL
CCCCCCCCNCCC[C@@H](C)[C@H]1CC[C@H]2[C@@H]3[C@H](OCCCN)C[C@@H]4C[C@H](OCCCN)CC[C@]4(C)[C@H]3C[C@H](OCCCN)[C@]12C [CSA-13],Effect of treatment on kidney IL-6 levels,IL-6,significantly reduced
